Our source for the IC50 values is ChEMBL document CHEMBL1142846, “Synthesis and cytotoxic activity of platinum complex immobilized by branched polyethylene glycol” (Bioorg Med Chem Lett, 2005).

The nature of the assay: Inhibition concentration against C6 […] cells by the 3-(4,5-dimethylthiazol-2-yl)-2,5-diphenyltetrazoliumbromide (MTT) method. It counts as functional, cell-based.

As a reminder, the IC50 is the concentration at which inhibition is half-maximal. Read a low IC50 as greater potency in that assay. In the case of CISPLATIN, the IC50 is 5.27 µM.
